Laboratory results taken from US12629354B2, “Sustained-release pharmaceutical compositions comprising of a sedative drug and uses thereof” (TAIWAN LIPOSOME CO., LTD., priority 2018, dated 2026).
Where a name gives a salt, the structure may show the parent alone.

Key:
[1] = plasma free dialysis bag, within 2 hours
Description: Two in vitro release systems were used in the study, the first system was the plasma free environment and the second system was the human plasma environment. […] Each dialysis bag was immersed in 20 mL of PBS at pH 7.4 in a 50-mL centrifuge tube and incubated at 37±1° C. water bath for 168 or 72 hours. At designated time points after incubation (1, 2, 4, 6, 24, 50, 72, 100 and 168 hours of first system and 1, 2, 4, 8, 24, 48 and 72 hours of second system), 1.0 mL aliquot from the 20-mL PBS was sampled and 1.0 mL of fresh PBS was added to replenish the sampling aliquot. Drug concentrations of the sampled aliquots at each time point were analyzed using HPLC to create the in vitro release profile of the tested formulations.

in vivo = conditions: rat
Description: The rats were housed in a holding room which operated on a 12-hr light/12-hr dark circadian cycle with free access to water and food.
The rats were divided into two groups (n=4 in each group), one group received intramuscular (IM) injection of 100 μg/kg of free dexmedetomidine hydrochloride, prepared by dissolving the dexmedetomidine hydrochloride in 9.4% sucrose solution with a final concentration of 250 μg/mL. The other group received IM injection of 106 μg/kg of liposomal dexmedetomidine hydrochloride, prepared according to Example 1. Blood samples were collected at 15, 30 min, 1, 2, 4, 8, 24, 48, and 72 hours post-injection. Plasma samples were obtained by centrifugation, kept frozen at −80° C. and analyzed using liquid chromatography-tandem mass spectrometry. The plasma concentrations versus time curves were analyzed using a noncompartmental analysis model in PKSolver (Comput. Methods Programs Biomed. 2010; 99(3):306-314).

guinea pigs [2] = experiment: Pharmacodynamic study, pin prick test after intracutaneous injection of 4 formulations; format: in vivo; conditions: 1.5 mg ropivacaine with or without 0.2 μg L-DEX in the same injection
Description: The guinea pigs were housed in a holding room which operated on a 12-hr light/12-hr dark circadian cycle with free access to water and food.
Four guinea pigs were used in this study and each guinea pig received 4 intracutaneous injections of 4 different formulations on its back to create 4 individual wheals respectively (i.e., 4 wheals per formulation), as illustrated in FIG. 3A. […] Briefly, 339.0 mg of DMPC, 96.7 mg of cholesterol and 200.0 mg of ropivacaine were dissolved in 10 mL of tert-butanol and lyophilized. The lyophilized cake was hydrated with a 50 mM histidine solution, pH 6, to form multilamellar vesicles (MLVs) with entrapped ropivacaine (liposomal ropivacaine composition), and the concentration of ropivacaine was diluted to 15.0 mg/mL with 9.4% sucrose solution. The anesthesia effect of ropivacaine was assessed at 30 minutes (0.5 hour), 1.0, 1.5, 2.0, 2.5, 3.0, 3.5, 4.0, 5.0, 6.0, 7.0, 8.0, 10 and 24 hours post-injection. The anesthetic effect was determined by observing the guinea pig's response to stimuli around individual wheals (pin prick test). PD data obtained from the pin prick tests were analyzed using an inhibitory effect sigmoid Emax model in PKSolver (Comput Methods Programs Biomed. 2010; 99(3):306-314).

guinea pigs [3] = experiment: Pharmacodynamic study, pin prick test with L-DEX or saline injected intramuscularly at a distant site; format: in vivo; conditions: 1.5 mg ropivacaine intracutaneous, IM saline or 2.0 μg/kg L-DEX outside the pin prick area
Description: Four guinea pigs were used in this study and was divided into two groups (Groups A and B). […] Each guinea pig in Group A and Group B received 4 intracutaneous injections on its back. Of the 4 intracutaneous injections, 2 injections delivered 1.5 mg of free ropivacaine each and the other two injections delivered 1.5 mg of liposomal ropivacaine composition each. The anesthetic effect of ropivacaine was assessed at 30 minutes (0.5 hour), 1.0, 1.5, 2.0, 2.5, 3.0, 3.5, 4.0, 5.0, 6.0, 7.0, 8.0 and 10 hours post-injection. The anesthetic effect was determined by observing the guinea pig's response to stimuli around individual wheals (i.e., pin prick test). PD data obtained from the pin prick tests was analyzed using an inhibitory effect sigmoid Emax model in PKSolver (Comput Methods Programs Biomed. 2010; 99(3):306-314).

[4] = female, Sprague-Dawley, im, 100 ug/kg

Work on `Cc1cccc([C@H](C)c2cnc[nH]2)c1C` [Free Dexmedetomidine, dexmedetomidine hydrochloride] yielded a dexmedetomidine released [1] of ~100%, an AUC(0-inf) (in vivo; [4]) of 35.1 ng·h/mL and an AUC(0-t) (in vivo; [4]) of 31.4 ng·h/mL. The Cmax (in vivo; [4]) was 11 ng/mL, the half-life (in vivo; [4]) was 2.36 h and the “dexmedetomidine released as indicated by AUC0-t” value (in vivo; female, Sprague-Dawley, im, 8 h) was 100%. The “dexmedetomidine in the plasma of rats” value (in vivo) was “undetectable”.

With `CCCN1CCCC[C@H]1C(=O)Nc1c(C)cccc1C` [Free Ropivacaine, ropivacaine hydrochloride monohydrate] the “TE50 (time to half maximal effect)” value (guinea pigs [2]) was 4.5 h, the Non-response time (guinea pigs [3]) was 0.5 h and the TE50 (guinea pigs [3]) was 1.6 h.
